Data reported in patent US10888090B2, “Plant growth promoters and methods of using them” (KING ABDULLAH UNIVERSITY OF SCIENCE AND TECHNOLOGY, priority 2015, dated 2021).

Experiments:
Arabidopsis (Col-0) [1] = assay: Lateral root density in Arabidopsis, single and combined treatment with auxin; type: in vivo; details: 3-OH-β-apo-13-carotenone 2.5 μM, auxin 100 nM; 9 days
Description: FIG. 15: Combined 3-OH-β-apo-13-Carotenone and auxin treatment of Arabidopsis has a synergetic effect on lateral root density. 3-OH-β-apo-13-carotenone and auxin (indole-3-acetic acid) were applied at 2.5 μM and 100 nM, concentrations, respectively. Arabidopsis (Col-0) seeds were germinated in/MS-plates (with 0.5% sucrose) containing individual and both compounds together and grown in 16 light/8 dark period, 22° C. for 9 days. Graph represents both actual density and in percentage. *P<0.05; Student's t test; **P<0.05; Student's t test. Also investigated was possible effect of combining 3-OH-β-apo-13-carotenone with auxin.

[2] = test system: Arabidopsis (col-0) seedlings; assay: Hypocotyl-derived adventitious root formation in Arabidopsis seedlings; type: in vivo, Arabidopsis thaliana; details: 2.5 μM; arising after dark-light transition
Text: FIG. 12A: 3-OH-β-apo-13-Carotenone treatment increases the number of hypocotyl-derived adventitious roots in a concentration-dependent manner (14 days old plants). For a better resolution, see FIG. 12B. FIG. 12B: 3-OH-β-apo-13-Carotenone treatment increases the number of hypocotyl-derived adventitious roots. (A) 4-day-old Arabidopsis (col-0) seedlings were transferred to 3-OH-β-apo-13-Carotenone containing plates at the indicated concentrations and grown for 10 days. Red arrows indicate adventitious roots on hypocotyl (B) Average number of adventitious roots. Seeds were germinated on 1 MS medium with 0.5% sucrose (pH 5.7) and grown for 4 days in the dark. Error bars represent means±S.E. Asterisks indicate significant differences as calculated using a standard Student's t-test (*P<0.005, ** <0.001). […] Therefore, we tested whether β-apo-13-carotenone can also induce adventitious root formation in the model plant Arabidopsis thaliana. As shown in FIGS. 12A and 12B, the compound exerted a clear induction on the number of hypocotyl-derived adventitious roots that usually arise spontaneously after dark-light transition. Highest activity—around 50% increase, was obtained with 2.5 μM concentrations (FIGS. 12A and 12B).

Greenhouse experiments = type: in vivo
[3] = test system: rice seedlings (cultivar 'Dongjin'); assay: Rice seedlings grown hydroponically with the compound: crown roots and biomass; type: in vivo; details: hydroponic
Description: FIG. 10: 3-OH-β-apo-13-Carotenone treatment increases the number of crown roots in rice. Seeds of cultivar ‘Dongjin’ were pre-germinated in water for 2 days followed by transfer to filter papers placed in petri dishes containing half-strength liquid Murashige and Skoog (MS) medium. The cultures were incubated at 24° C. for one week. Thereafter, the seedlings were grown hydroponically in half-strength modified Hoagland nutrient solution containing different concentrations of 3-OH-β-apo-13-carotenone for 2 weeks in the greenhouse. The medium was changed twice a week, data were recorded 2 weeks after treatment. (FIG. 10A) Number of crown roots of rice seedlings 2 weeks after treatment. Each value represents the mean of 10 seedlings. Error bar indicates standard error. Asterisks denote a significant difference from the mock treatment by student t-test (* P<0.05; ** P<0.01). FIG. 11: Root and shoot biomass of rice seedlings treated with 3-OH-β-apo-13-Carotenone. One week-old seedlings of cultivar ‘Dongjin’ were grown hydroponically in half-strength modified Hoagland nutrient solution containing different concentrations of 3-OH-β-apo-13-Carotenone for two weeks in the greenhouse. The medium was changed twice a week. After two weeks, roots and shoots were collected separately and dried in an incubator at 80° C. for 3 days. Dried samples were weighed using a Mettler Toledo balance. […]

[4] = test system: Leaf explants of 12-day-old seedlings; assay: Leaf-derived adventitious roots (leaf explants of 12-day-old seedlings); type: in vivo, Arabidopsis thaliana
Text: FIG. 13: 3-OH-β-apo-13-Carotenone treatment increases the number of leaf-derived adventitious roots (Leaf explants of 12-day-old seedlings). […] Therefore, we tested whether β-apo-13-carotenone can also induce adventitious root formation in the model plant Arabidopsis thaliana. As shown in FIGS. 12A and 12B, the compound exerted a clear induction on the number of hypocotyl-derived adventitious roots that usually arise spontaneously after dark-light transition. Highest activity—around 50% increase, was obtained with 2.5 μM concentrations (FIGS. 12A and 12B).

Arabidopsis = assay: Number of lateral roots in Arabidopsis (14 days old plants); type: in vivo
Description: FIG. 14: 3-OH-β-apo-13-Carotenone treatment of Arabidopsis increases the number of lateral roots in a concentration-dependent manner (14 days old plants). 0-5 μM corresponds to different concentrations of synthetic 3-OH-β-apo-13-Carotenone. Puri corresponds to synthetic 3-OH-β-apo-13-Carotenone after HPLC purification. […] Therefore, we tested whether β-apo-13-carotenone can also induce adventitious root formation in the model plant Arabidopsis thaliana. As shown in FIGS. 12A and 12B, the compound exerted a clear induction on the number of hypocotyl-derived adventitious roots that usually arise spontaneously after dark-light transition. Highest activity—around 50% increase, was obtained with 2.5 μM concentrations (FIGS. 12A and 12B). […] To ensure that the biological activity observed is caused by 3-OH-β-apo-13-carotenone and not by a possible contamination with a different compound that may be included during the organic synthesis, HPLC was used to isolate highly pure 3-OH-β-apo-13-carotenone, and the purified compound was applied.

Arabidopsis (Col-0) [5] = assay: Primary root length in Arabidopsis; type: in vivo; details: 2.5 μM, 9 days
Description: FIG. 16: 3-OH-β-apo-13-Carotenone treatment of Arabidopsis increases the length of primary root. Arabidopsis (Col-0) seeds were germinated on/MS-plates (with 0.5% sucrose) containing 3-OH-β-apo-13-carotenone and grown in 16 light/8 dark period, 22° C. for 9 days. *P<0.05; Student's t-test; **P<0.05; Student's t test. 3-OH-β-apo-13-carotenone was applied at 2.5 μM concentration. Also investigated was the effect of the compound on primary root length.

root hairs = details: at high concentration; cited from earlier work

| Structure (SMILES) | increase in lateral root density, single treatment (Arabidopsis (Col-0) [1]) | increase in number of hypocotyl-derived adventitious roots (highest activity) [2] | growth and flowering in greenhouse experiments (Greenhouse experiments) | number of crown roots ([3]; micromolar concentrations, 2 weeks after treatment) | increase in root and shoot biomass ([3]; two weeks, dried samples) | number of leaf-derived adventitious roots [4] | number of lateral roots (Arabidopsis; 2.5 μM, synthetic compound) | lateral root number (Arabidopsis; compound after HPLC purification) | primary root length (Arabidopsis (Col-0) [5]) | tip growth of root hairs (root hairs) |
| --- | --- | --- | --- | --- | --- | --- | --- | --- | --- | --- |
| CC(=O)/C=C/C=C(C)/C=C/C1=C(C)CC(O)CC1(C)C (stereo not drawn) [3-OH-β-apo-13-carotenone] | around 20% | around 50% | growth-promoting effects and early flowering | obvious increase in the number of crown roots | around 30% | noticeable increase (duplication) | clearly increased the number of lateral roots | increase in lateral root number was detected similar to that observed before | small but significant increase | – |
| O=C(O)Cc1c[nH]c2ccccc12 [auxin, indole-3-acetic acid, reference compound] | ~30% | – | – | – | – | – | – | – | – | – |
| CC(=O)/C=C/C=C(C)/C=C/C1=C(C)CCCC1(C)C [d'orenone, β-apo-13-carotenone] | – | – | – | – | – | – | – | – | – | block tip growth of root hairs |
